Test results as given in US9056804B2, “Urease inhibitor formulations” (Incitec Pivot Limited, priority 2011, dated 2015).

What was measured:
urease = assay: Soil-water suspension incubation, ammonium formed from urea (17 days); type: biochemical; conditions: 72% inhibition at 50 μg/200 ml versus NBPT at 400 μg/200 ml
Protocol: The ammonium produced was measured as per Example 9.

[1] = system: fish, algae and invertebrates; conditions: cited from earlier work

NP(N)(=O)Nc1ccccc1[N+](=O)[O-] [Example 2-NPT, 2-nitrophenyl phosphoric triamide]
activity relative to NBPT (urease): about eight times more active than NBPT

O=S1(=O)CCCC1 [tetramethylene sulfone]
LC50 [1]: greater than 1000 mg/l
